Measurements: patent US20070249706A1, “USE OF CERTAIN BIPHENYL COMPOUNDS FOR PROTECTION OF NEURONS AND OLIGODENDROCYTES IN THE TREATMENT OF MULTIPLE SCLEROSIS (MS)” (AVENTIS PHARMACEUTICALS INC., priority 2004, published 2007)

Experiments:
mature oligodendrocytes = assay: Oligodendrocyte toxicity assay, protection of mature oligodendrocytes (OL) against SIN-1, LDH release; format: cell-based, rat; details: 10 nM compound, 1 hour pretreatment, SIN-1 toxin, LDH after 24 hours
Procedure: (§1) Oligodendrocyte Toxicity Assay
(§2) Primary rat oligodendrocyte progenitor cells were obtained from the cerebra of 2-3 day old postnatal rats (Sprague Dawley). The meninges were removed and tissue was mechanically dissociated. Cells were plated on T75 flasks and fed with DMEM +10% FBS.
(§3) Enriched OLPs were collected by mechanical separation from the astrocytic monolayer and were expanded in serum free media (SFM) supplemented with the mitogens, PDGF-AA (10 ng/mI) and FGF-2 (10 ng/mI).
To generate mature oligodendrocytes, progenitor cells were switched to SFM supplemented with IGF-1 (10 ng/mi) 24 hours after plating and cells were grown under these conditions for 7 days prior to experimental assays.
(§4) Cells were plated in 96-well plates, 10,000 per well. Medium was changed to fresh medium and cells were pretreated with compounds for 1 hour. Toxins were added to give the following final concentrations: Sin-10 mM, Camptothecin 1 OM
(§5) After 24 hours, medium was removed and assayed for LDH activity using the Promega cytotox 96 kit (catalog# G1780). Results were calculated as percent protection against toxin-induced toxicity.
(§6) These compounds have been assessed for their efficacy in protection against cell death produced by toxic agents such as SIN-1 (3-morpholino-sydnonimine, producing peroxynitrite) and camptothecin. The target cells assessed in vitro are primary cultures of rodent oligodendrocyte progenitors and their mature counterparts.

[1] = tested on: primary rat oligodendrocyte progenitor cells; assay: Oligodendrocyte toxicity assay, protection of oligodendrocyte progenitors (OLP) against SIN-1, LDH release; format: cell-based; details: 10 nM compound, 1 hour pretreatment, SIN-1 toxin, LDH after 24 hours
Procedure: as §1, §2, §3, §4, §5, §6

ERβ = target: T1, ERβ (Homo sapiens, UniProt Q92731); assay: Fluorescence Polarization Competition Assay, ERβ binding (Panvera kit); details: for IC50: ER, fluorescence polarization competition; for ER[…] selectivity Fold Diff: ratio of the two ER binding IC50 values
T1 construct: purchased Panvera P2700
T1 sequence (Q92731 whole entry): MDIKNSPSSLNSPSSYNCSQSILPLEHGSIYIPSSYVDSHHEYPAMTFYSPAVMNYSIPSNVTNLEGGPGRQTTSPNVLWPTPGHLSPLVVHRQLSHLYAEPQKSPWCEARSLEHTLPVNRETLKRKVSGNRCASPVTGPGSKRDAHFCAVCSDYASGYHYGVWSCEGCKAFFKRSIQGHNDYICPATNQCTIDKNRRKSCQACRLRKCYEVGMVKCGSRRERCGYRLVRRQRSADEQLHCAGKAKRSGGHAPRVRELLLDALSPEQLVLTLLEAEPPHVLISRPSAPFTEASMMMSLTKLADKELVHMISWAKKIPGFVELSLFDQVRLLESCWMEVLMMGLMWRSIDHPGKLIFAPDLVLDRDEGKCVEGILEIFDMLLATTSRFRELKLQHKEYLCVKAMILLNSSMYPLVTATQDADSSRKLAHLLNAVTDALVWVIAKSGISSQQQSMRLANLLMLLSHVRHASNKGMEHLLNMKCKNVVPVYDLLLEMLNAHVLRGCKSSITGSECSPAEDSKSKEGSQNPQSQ
Procedure: (§7) A number of compounds were tested for ERα and ERβ binding using Panvera's Fluorescence Polarization Competition Assay Kits (cat. nos. P2698 and P2700). Briefly, ERα or ERβ were thawed on ice from −80° C. An estrogen receptor and fluorescent ligand (Fluormone™) complex was formed at a 15/1 molar ratio for ERα and at a 10/1 molar ratio for ER≈ (2X complex). Serial dilutions of the test compounds were made in assay buffer and the assay was initiated by adding 50 ul of the 2X receptor-ligand complex to 50 ul of compound solution in black 96-well plates. Zero percent competition (theoretical maximum polarization) was measured in wells containing 50 ul of buffer and 50 ul of the 2X receptor-ligand complex. The plates were incubated after gentle shaking in the dark at room temperature. Polarization values (mP) were read no longer than 7 hours after the reaction was started with a FARCyte Fluorescent reader (Amersham) at excitation and emission wavelengths of 485 nm and 535 nm, respectively. Data was analyzed using non-linear regression and IC50 values determined using GraphPad Prism. Estradiol was used as the reference compound.

ERα = target: T2, ERα (Homo sapiens, UniProt P03372); assay: Fluorescence Polarization Competition Assay, ERα binding (Panvera kit); details: first ER column
T2 construct: purchased Panvera P2698
T2 sequence (P03372 1-595): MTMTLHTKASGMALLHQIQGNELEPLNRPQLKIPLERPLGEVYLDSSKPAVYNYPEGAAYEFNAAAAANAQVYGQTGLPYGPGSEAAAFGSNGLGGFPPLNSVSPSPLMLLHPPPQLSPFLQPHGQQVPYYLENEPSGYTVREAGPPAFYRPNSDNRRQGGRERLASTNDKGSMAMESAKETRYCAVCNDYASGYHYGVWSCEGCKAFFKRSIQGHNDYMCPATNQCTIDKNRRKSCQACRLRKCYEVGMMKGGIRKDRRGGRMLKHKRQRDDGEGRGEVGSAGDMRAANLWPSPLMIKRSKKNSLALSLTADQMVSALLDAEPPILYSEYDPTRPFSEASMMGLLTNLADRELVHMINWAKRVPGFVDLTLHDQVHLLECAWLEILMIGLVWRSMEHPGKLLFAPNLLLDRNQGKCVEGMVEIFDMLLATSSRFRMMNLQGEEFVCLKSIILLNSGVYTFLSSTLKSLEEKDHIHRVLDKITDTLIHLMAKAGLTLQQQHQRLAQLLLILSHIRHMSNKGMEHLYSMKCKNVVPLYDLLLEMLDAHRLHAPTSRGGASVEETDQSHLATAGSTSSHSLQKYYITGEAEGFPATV
Procedure: as §7

SMILES | % Protection (SIN-1*) OL 10 nM (mature oligodendrocytes) | % Protection (SIN-1*) OLP 10 nM [1] | IC50 (ERβ) | ER[…] selectivity Fold Diff (ERβ) | IC50 (ERα)
OCc1cc(Br)c(-c2ccc(O)cc2)c(-n2cccc2)c1 [2-bromo-4′-hydroxy-6-(1H-pyrrol-1-yl)-1,1′-biphenyl]-4-methanol] | 15% | 10% | 0.015 µM | 27 Fold | 0.408 µM
CN(C)c1cc(CO)cc(Br)c1-c1ccc(O)cc1 [2-bromo-6-dimethylamino-4′-hydroxy-[1,1′-biphenyl]-4-methanol] | 12% | 45% | 0.037 µM | 11 Fold | 0.42 µM
O=[N+]([O-])c1cc(CO)cc(Br)c1-c1ccc(O)cc1 [2-bromo-4′-hydroxy-6-nitro-[1,1′-biphenyl]-4-methanol] | 12% | 16% | 0.008 µM | 16 Fold | 0.125 µM
OCc1cc(Br)c(-c2ccc(O)cc2)c(-c2ccoc2)c1 [2-bromo-6-(furan-3-yl)-4′-hydroxy-[1,1′-biphenyl]-4-methanol] | 16% | 37% | 0.006 µM | 25 Fold | 0.157 µM
OCc1cc(Br)c(-c2ccc(O)cc2)c(Br)c1 [2,6-dibromo-4′-hydroxy-[1,1′-biphenyl]-4-methanol] | 11% | 51% | 0.009 µM | 7 Fold | 0.06 µM
OCc1cc(Cl)c(-c2ccc(O)cc2)c(Cl)c1 [2,6-dichloro-4′-hydroxy-[1,1′-biphenyl]-4-methanol] | 6% | 36% | 0.018 µM | 5 Fold | 0.093 µM
